Experimental data taken from article PMC7979807, “A 37-amino acid loop in the Yarrowia lipolytica hexokinase impacts its activity and affinity and modulates gene expression” (Scientific Reports, 2021).

Columns and labels:
Test in all cases: Hexokinase Colorimetric Assay Kit, whole-cell extract, […] hexose
Assay type in all cases: biochemical
[1] = molecular target: T1, YlHxk1 (Yarrowia lipolytica, UniProt F2Z672, DEL155-182); details: relative to YlHxk1, absolute Km not given; extract 30 µg/mL protein in PBS pH 7.4; host hxk1 glk1
T1 construct: gene YALI0_B22308g; full-length, 534 residues, untagged; pTEF overexpression in Y. lipolytica Po1d hxk1 glk1; whole-cell extract; gene from W29 genomic DNA
T1 sequence (F2Z672 entry or part of it DEL155-182): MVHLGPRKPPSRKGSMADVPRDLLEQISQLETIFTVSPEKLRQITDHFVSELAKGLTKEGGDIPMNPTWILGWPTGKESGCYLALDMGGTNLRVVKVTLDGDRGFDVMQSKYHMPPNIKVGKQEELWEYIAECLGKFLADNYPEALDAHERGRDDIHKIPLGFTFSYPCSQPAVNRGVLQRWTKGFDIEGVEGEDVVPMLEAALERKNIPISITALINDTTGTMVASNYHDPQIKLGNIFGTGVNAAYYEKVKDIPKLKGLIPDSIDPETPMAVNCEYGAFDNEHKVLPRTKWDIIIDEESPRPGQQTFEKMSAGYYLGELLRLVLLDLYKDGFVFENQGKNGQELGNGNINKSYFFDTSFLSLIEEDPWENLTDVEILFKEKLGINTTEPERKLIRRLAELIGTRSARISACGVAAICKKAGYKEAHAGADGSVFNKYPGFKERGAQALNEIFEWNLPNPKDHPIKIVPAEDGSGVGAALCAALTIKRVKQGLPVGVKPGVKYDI

[2] = molecular target: T2, YlHxk1 (Yarrowia lipolytica, UniProt F2Z672, DEL7-15); details: relative to YlHxk1, absolute Km not given; extract 30 µg/mL protein in PBS pH 7.4; host hxk1 glk1
T2 construct: gene YALI0_B22308g; full-length, 534 residues, untagged; pTEF overexpression in Y. lipolytica Po1d hxk1 glk1; whole-cell extract; gene from W29 genomic DNA
T2 sequence (F2Z672 entry or part of it DEL7-15): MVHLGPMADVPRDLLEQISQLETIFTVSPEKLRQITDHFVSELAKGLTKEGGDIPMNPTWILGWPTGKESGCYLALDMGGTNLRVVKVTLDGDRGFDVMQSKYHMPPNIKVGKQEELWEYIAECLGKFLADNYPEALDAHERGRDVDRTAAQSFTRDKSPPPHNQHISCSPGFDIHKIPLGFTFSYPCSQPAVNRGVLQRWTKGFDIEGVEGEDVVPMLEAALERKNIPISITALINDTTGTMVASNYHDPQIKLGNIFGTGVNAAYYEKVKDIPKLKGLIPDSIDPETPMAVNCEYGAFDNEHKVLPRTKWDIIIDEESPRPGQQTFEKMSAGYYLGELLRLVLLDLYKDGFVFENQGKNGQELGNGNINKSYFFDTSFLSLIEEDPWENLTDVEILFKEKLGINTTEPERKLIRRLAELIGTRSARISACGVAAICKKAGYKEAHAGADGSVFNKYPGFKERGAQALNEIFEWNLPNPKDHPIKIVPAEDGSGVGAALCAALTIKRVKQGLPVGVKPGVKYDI

[3] = molecular target: T3, YlHxk1 (Yarrowia lipolytica, UniProt F2Z672); details: reference enzyme of the fold scale, no absolute Km of this study printed; otherwise same
T3 construct: gene YALI0_B22308g; full-length, 534 residues, untagged; pTEF overexpression in Y. lipolytica Po1d hxk1 glk1; whole-cell extract; gene from W29 genomic DNA
T3 sequence (F2Z672 1-534): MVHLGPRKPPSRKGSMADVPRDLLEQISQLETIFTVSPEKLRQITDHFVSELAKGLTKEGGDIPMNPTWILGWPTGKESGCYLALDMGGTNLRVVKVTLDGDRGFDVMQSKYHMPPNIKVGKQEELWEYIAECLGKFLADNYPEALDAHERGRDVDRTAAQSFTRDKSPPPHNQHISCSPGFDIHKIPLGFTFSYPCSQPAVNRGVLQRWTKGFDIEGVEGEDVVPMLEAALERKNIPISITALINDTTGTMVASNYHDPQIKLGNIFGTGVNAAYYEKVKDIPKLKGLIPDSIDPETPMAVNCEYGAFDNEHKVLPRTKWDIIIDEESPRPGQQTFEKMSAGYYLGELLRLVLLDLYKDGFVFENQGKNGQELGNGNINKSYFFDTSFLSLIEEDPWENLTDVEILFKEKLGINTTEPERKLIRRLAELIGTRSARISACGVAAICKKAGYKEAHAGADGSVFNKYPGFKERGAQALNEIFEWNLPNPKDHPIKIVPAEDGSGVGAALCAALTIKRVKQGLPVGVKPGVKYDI

[4] = molecular target: T4, YlHxk1 (Yarrowia lipolytica, UniProt F2Z672, E500G); details: relative to YlHxk1, absolute Km not given; extract 30 µg/mL protein in PBS pH 7.4; host hxk1 glk1
T4 construct: gene YALI0_B22308g; full-length, 534 residues, untagged; pTEF overexpression in Y. lipolytica Po1d hxk1 glk1; whole-cell extract; gene from W29 genomic DNA
T4 sequence (F2Z672 entry or part of it E500G): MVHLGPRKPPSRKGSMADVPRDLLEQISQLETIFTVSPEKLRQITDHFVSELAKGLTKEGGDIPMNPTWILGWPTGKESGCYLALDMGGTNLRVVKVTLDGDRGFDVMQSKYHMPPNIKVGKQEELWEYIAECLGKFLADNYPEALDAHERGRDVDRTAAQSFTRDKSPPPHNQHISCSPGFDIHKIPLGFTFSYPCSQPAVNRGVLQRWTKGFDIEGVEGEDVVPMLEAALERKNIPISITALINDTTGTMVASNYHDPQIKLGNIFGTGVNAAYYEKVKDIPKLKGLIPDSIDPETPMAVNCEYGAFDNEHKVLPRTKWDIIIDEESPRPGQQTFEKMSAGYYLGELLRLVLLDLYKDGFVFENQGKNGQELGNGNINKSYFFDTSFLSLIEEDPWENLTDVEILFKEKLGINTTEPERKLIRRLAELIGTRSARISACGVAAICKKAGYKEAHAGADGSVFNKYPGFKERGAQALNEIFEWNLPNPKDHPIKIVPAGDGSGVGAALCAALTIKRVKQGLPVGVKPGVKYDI

[5] = molecular target: T5, ScHxk2 (Saccharomyces cerevisiae, UniProt P04807); details: relative to YlHxk1, absolute Km not given; extract 30 µg/mL protein in PBS pH 7.4; host hxk1 glk1
T5 construct: gene HXK2; full-length, untagged; pTEF overexpression in Y. lipolytica Po1d hxk1 glk1; whole-cell extract
T5 sequence (P04807 2-486): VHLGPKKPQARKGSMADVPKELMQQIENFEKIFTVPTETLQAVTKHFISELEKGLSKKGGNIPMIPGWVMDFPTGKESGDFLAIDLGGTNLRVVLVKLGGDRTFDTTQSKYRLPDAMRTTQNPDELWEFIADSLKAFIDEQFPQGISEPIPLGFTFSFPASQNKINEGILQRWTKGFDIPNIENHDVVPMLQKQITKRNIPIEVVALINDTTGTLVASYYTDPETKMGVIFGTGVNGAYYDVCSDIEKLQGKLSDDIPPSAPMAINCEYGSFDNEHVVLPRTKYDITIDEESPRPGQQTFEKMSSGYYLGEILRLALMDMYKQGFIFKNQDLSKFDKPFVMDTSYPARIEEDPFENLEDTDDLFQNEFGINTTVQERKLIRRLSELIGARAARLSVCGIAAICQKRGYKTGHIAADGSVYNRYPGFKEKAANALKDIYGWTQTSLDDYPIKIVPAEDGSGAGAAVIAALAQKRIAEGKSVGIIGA

[6] = molecular target: T1, YlHxk1; details: relative to YlHxk1, absolute Km not given; extract 30 µg/mL protein in PBS pH 7.4; host hxk1 glk1; remark: listed apart in the source
[7] = molecular target: T2, YlHxk1; details: relative to YlHxk1, absolute Km not given; extract 30 µg/mL protein in PBS pH 7.4; host hxk1 glk1; remark: listed apart in the source
[8] = molecular target: T4, YlHxk1; details: relative to YlHxk1, absolute Km not given; extract 30 µg/mL protein in PBS pH 7.4; host hxk1 glk1; remark: listed apart in the source
[9] = molecular target: T5, ScHxk2; details: relative to YlHxk1, absolute Km not given; extract 30 µg/mL protein in PBS pH 7.4; host hxk1 glk1; remark: listed apart in the source

SMILES	20 mM glucose [1]	20 mM glucose [2]	20 mM glucose [3]	relative hexokinase activity at 20 mM glucose [4]	20 mM glucose [5]	hexokinase activity with 20 mM fructose, relative to YlHxk1 [6]	relative hexokinase activity on 20 mM fructose [7]	relative hexokinase activity at 20 mM fructose [8]	relative hexokinase activity with 20 mM fructose [9]
OC[C@H]1OC(O)[C@H](O)[C@@H](O)[C@@H]1O (stereo partly shown) [glucose]	2.05 ± 0.32 fold vs YlHxk1	0.18 ± 0.03 fold vs YlHxk1	1.00 fold vs YlHxk1	2.50 ± 0.24 fold vs YlHxk1	1.22 ± 0.16 fold vs YlHxk1				
OCC1(O)OC[C@@H](O)[C@@H](O)[C@@H]1O (stereo partly shown) [fructose]			1.00 fold vs YlHxk1			2.80 ± 0.28 fold vs YlHxk1	3.98 ± 0.67 fold vs YlHxk1	0.53 ± 0.15 fold vs YlHxk1	8.00 ± 0.76 fold vs YlHxk1
